*1 amine or outer side, *2 acyl side, *3 side chain or, on linkers, in order; H or OH if unused. Where a SMILES comes first, the peptide text is derived from it. [ ]: non-standard residue; d: D form. Trp(4-Cl)(βS-Me) = C[C@@H](c1c[nH]c2cccc(Cl)c12)[C@H](N)C(=O)O; Ala(piperidin-4-yl) = O=C([C@H](CC1CCN([*:3])CC1)N[*:1])[*:2]; Bip(4'-COOH) = N[C@@H](Cc1ccc(-c2ccc(C(=O)O)cc2)cc1)C(=O)O; Phe(3-CH2NH2) = O=C([C@H](Cc1cccc(CN[*:3])c1)N[*:1])[*:2]; Phe(4-COOH) = N[C@@H](Cc1ccc(C(=O)O)cc1)C(=O)O; Phe(4-CH2NH2) = NCc1ccc(C[C@H](N)C(=O)O)cc1; Phe(3-NH2) = Nc1cccc(C[C@H](N)C(=O)O)c1; Phe(4-NH2) = Nc1ccc(C[C@H](N)C(=O)O)cc1; Pro(4R-NH2) = N[C@H]1CN[C@H](C(=O)O)C1; hTyr = N[C@@H](CCc1ccc(O)cc1)C(=O)O; dDab = NCC[C@@H](N)C(=O)O; Orn = NCCC[C@H](N)C(=O)O; dNMeA = CN[C@H](C)C(=O)O; Dap = NC[C@H](N)C(=O)O

This assay addresses T1, Recombinant human IL-1β (Homo sapiens, UniProt P01584).
T1 construct: purchased BioLegend 579404
The assay can be described thus: IL-6 assay in MRC5 cells: inhibition of IL-1β induced IL-6 secretion (AlphaLISA). The following applies: inhibition of IL-1β induced IL-6 secretion in MRC5 cells; IL-1β pre-incubated 1 hour with compound; read-out: MRC5 IC50. The assay is classed as cell-based. The method in brief:
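IL-1β at 2×EC80 in seeding medium (EMEM, 0.025% BSA) preincubated 1 h at ambient temperature with compound, then 3000 MRC5 cells/well added and incubated overnight at 37 °C, 5% CO2. IL-6 in conditioned medium quantified by AlphaLISA; IC50 from 4-parameter logistic fit.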
(In general: In Alpha technology, singlet oxygen from a donor bead excites a nearby acceptor bead.)

T1 sequence (P01584 117-269): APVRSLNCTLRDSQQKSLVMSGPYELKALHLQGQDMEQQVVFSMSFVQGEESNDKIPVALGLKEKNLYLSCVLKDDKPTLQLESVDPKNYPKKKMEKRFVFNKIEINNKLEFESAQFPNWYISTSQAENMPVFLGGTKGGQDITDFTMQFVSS

As usually defined, the IC50 is the midpoint of a concentration-inhibition curve. With `C[C@@H]1C(=O)NCC(=O)N[C@@H](Cc2ccc(-c3ccc(C(=O)O)cc3)cc2)C(=O)N[C@@H](CC2CCNCC2)C(=O)N[C@@H](CO)C(=O)N[C@H](C)C(=O)N[C@@H](CCc2ccc(O)cc2)C(=O)N[C@@H](Cc2ccc(-c3ccc(C(=O)O)cc3)cc2)C(=O)N[C@@H](Cc2c[nH]c3ccccc23)C(=O)N[C@@H](Cc2ccc(C(=O)O)cc2)C(=O)NCC(=O)N2C[C@H](N)C[C@H]2C(=O)N[C@@H]([C@@H](C)c2c[nH]c3cccc(Cl)c23)C(=O)N[C@@H](CC(=O)O)C(=O)N1C` [Example 40] (cyclo([Bip(4'-COOH)]W[Phe(4-COOH)]G[Pro(4R-NH2)][Trp(4-Cl)(βS-Me)]D[dNMeA]G[Bip(4'-COOH)][Ala(piperidin-4-yl)]S[dA][hTyr])), the IC50 is 0.508 nM.
`C[C@@H]1C(=O)NCC(=O)N[C@@H](Cc2ccc(-c3ccc(C(=O)O)cc3)cc2)C(=O)N[C@@H](CN)C(=O)N[C@@H](CO)C(=O)N[C@H](C)C(=O)N[C@@H](CCc2ccc(O)cc2)C(=O)N[C@@H](Cc2ccc(-c3ccc(C(=O)O)cc3)cc2)C(=O)N[C@@H](Cc2c[nH]c3ccccc23)C(=O)N[C@@H](Cc2ccc(C(=O)O)cc2)C(=O)NCC(=O)N2C[C@H](N)C[C@H]2C(=O)N[C@@H]([C@@H](C)c2c[nH]c3cccc(Cl)c23)C(=O)N[C@@H](CC(=O)O)C(=O)N1C` [Example 41] (cyclo([Bip(4'-COOH)]W[Phe(4-COOH)]G[Pro(4R-NH2)][Trp(4-Cl)(βS-Me)]D[dNMeA]G[Bip(4'-COOH)][Dap]S[dA][hTyr])): the IC50 came out at 0.469 nM.
For `CC(C)C[C@@H]1NC(=O)[C@H](CCCCN)NC(=O)[C@H](Cc2ccc(-c3ccc(C(=O)O)cc3)cc2)NC(=O)CNC(=O)[C@@H](C)N(C)C(=O)[C@H](CC(=O)O)NC(=O)[C@H]([C@@H](C)c2c[nH]c3cccc(Cl)c23)NC(=O)[C@@H]2C[C@@H](N)CN2C(=O)CNC(=O)[C@H](Cc2ccc(C(=O)O)cc2)NC(=O)[C@H](Cc2c[nH]c3ccccc23)NC(=O)[C@H](Cc2ccc(-c3ccc(C(=O)O)cc3)cc2)NC(=O)[C@H](CCc2ccc(O)cc2)NC(=O)[C@@H](C)NC1=O` [Example 42] (cyclo([Bip(4'-COOH)]W[Phe(4-COOH)]G[Pro(4R-NH2)][Trp(4-Cl)(βS-Me)]D[dNMeA]G[Bip(4'-COOH)]KL[dA][hTyr])) the value was 0.627 nM; for `CC(C)C[C@@H]1NC(=O)[C@H](CCCCN)NC(=O)[C@H](Cc2ccc(-c3ccc(C(=O)O)cc3)cc2)NC(=O)CNC(=O)[C@@H](C)N(C)C(=O)[C@H](CC(=O)O)NC(=O)[C@H]([C@@H](C)c2c[nH]c3cccc(Cl)c23)NC(=O)[C@@H]2C[C@@H](N)CN2C(=O)CNC(=O)[C@H](Cc2ccc(C(=O)O)cc2)NC(=O)[C@H](Cc2c[nH]c3ccccc23)NC(=O)[C@H](Cc2ccc(-c3ccc(C(=O)O)cc3)cc2)NC(=O)[C@H](CCc2ccc(O)cc2)NC(=O)[C@@H](CCN)NC1=O` [Example 43] (cyclo([Bip(4'-COOH)]W[Phe(4-COOH)]G[Pro(4R-NH2)][Trp(4-Cl)(βS-Me)]D[dNMeA]G[Bip(4'-COOH)]KL[dDab][hTyr])), 0.244 nM.
Under `CC(C)C[C@@H]1NC(=O)[C@H](CCCCN)NC(=O)[C@H](Cc2ccc(-c3ccc(C(=O)O)cc3)cc2)NC(=O)CNC(=O)[C@@H](C)N(C)C(=O)[C@H](CC(=O)O)NC(=O)[C@H]([C@@H](C)c2c[nH]c3cccc(Cl)c23)NC(=O)[C@@H]2C[C@@H](N)CN2C(=O)CNC(=O)[C@H](Cc2ccc(C(=O)O)cc2)NC(=O)[C@H](Cc2c[nH]c3ccccc23)NC(=O)[C@H](Cc2ccc(-c3ccc(C(=O)O)cc3)cc2)NC(=O)[C@H](CCc2ccc(O)cc2)NC(=O)[C@@H](CO)NC1=O` [Example 44] (cyclo([Bip(4'-COOH)]W[Phe(4-COOH)]G[Pro(4R-NH2)][Trp(4-Cl)(βS-Me)]D[dNMeA]G[Bip(4'-COOH)]KL[dS][hTyr])) stands 0.132 nM; under `C[C@@H]1C(=O)NCC(=O)N[C@@H](Cc2ccc(-c3ccc(C(=O)O)cc3)cc2)C(=O)N[C@@H](CCCCN)C(=O)N[C@@H](CO)C(=O)N[C@H](C)C(=O)N[C@@H](CCc2ccc(O)cc2)C(=O)N[C@@H](Cc2ccc(-c3ccc(C(=O)O)cc3)cc2)C(=O)N[C@@H](Cc2c[nH]c3ccccc23)C(=O)N[C@@H](Cc2ccc(C(=O)O)cc2)C(=O)NCC(=O)N2C[C@H](N)C[C@H]2C(=O)N[C@@H]([C@@H](C)c2c[nH]c3cccc(Cl)c23)C(=O)N[C@@H](CC(=O)O)C(=O)N1C` [Example 45] (cyclo([Bip(4'-COOH)]W[Phe(4-COOH)]G[Pro(4R-NH2)][Trp(4-Cl)(βS-Me)]D[dNMeA]G[Bip(4'-COOH)]KS[dA][hTyr])), 0.174 nM.
For `C[C@@H]1C(=O)NCC(=O)N[C@@H](Cc2ccc(-c3ccc(C(=O)O)cc3)cc2)C(=O)N[C@@H](CCCCN)C(=O)N[C@@H](CO)C(=O)N[C@H](CCN)C(=O)N[C@@H](CCc2ccc(O)cc2)C(=O)N[C@@H](Cc2ccc(-c3ccc(C(=O)O)cc3)cc2)C(=O)N[C@@H](Cc2c[nH]c3ccccc23)C(=O)N[C@@H](Cc2ccc(C(=O)O)cc2)C(=O)NCC(=O)N2C[C@H](N)C[C@H]2C(=O)N[C@@H]([C@@H](C)c2c[nH]c3cccc(Cl)c23)C(=O)N[C@@H](CC(=O)O)C(=O)N1C` [Example 46] (cyclo([Bip(4'-COOH)]W[Phe(4-COOH)]G[Pro(4R-NH2)][Trp(4-Cl)(βS-Me)]D[dNMeA]G[Bip(4'-COOH)]KS[dDab][hTyr])) the value was 0.134 nM; for `C[C@@H]1C(=O)NCC(=O)N[C@@H](Cc2ccc(-c3ccc(C(=O)O)cc3)cc2)C(=O)N[C@@H](CCCCN)C(=O)N[C@@H](CO)C(=O)N[C@H](CO)C(=O)N[C@@H](CCc2ccc(O)cc2)C(=O)N[C@@H](Cc2ccc(-c3ccc(C(=O)O)cc3)cc2)C(=O)N[C@@H](Cc2c[nH]c3ccccc23)C(=O)N[C@@H](Cc2ccc(C(=O)O)cc2)C(=O)NCC(=O)N2C[C@H](N)C[C@H]2C(=O)N[C@@H]([C@@H](C)c2c[nH]c3cccc(Cl)c23)C(=O)N[C@@H](CC(=O)O)C(=O)N1C` [Example 47] (cyclo([Bip(4'-COOH)]W[Phe(4-COOH)]G[Pro(4R-NH2)][Trp(4-Cl)(βS-Me)]D[dNMeA]G[Bip(4'-COOH)]KS[dS][hTyr])), 0.123 nM.
With `C[C@@H]1C(=O)NCC(=O)N[C@@H](Cc2ccc(-c3ccc(C(=O)O)cc3)cc2)C(=O)N[C@@H](Cc2cccc(CN)c2)C(=O)N[C@@H](CO)C(=O)N[C@H](C)C(=O)N[C@@H](CCc2ccc(O)cc2)C(=O)N[C@@H](Cc2ccc(-c3ccc(C(=O)O)cc3)cc2)C(=O)N[C@@H](Cc2c[nH]c3ccccc23)C(=O)N[C@@H](Cc2ccc(C(=O)O)cc2)C(=O)NCC(=O)N2C[C@H](N)C[C@H]2C(=O)N[C@@H]([C@@H](C)c2c[nH]c3cccc(Cl)c23)C(=O)N[C@@H](CC(=O)O)C(=O)N1C` [Example 48] (cyclo([Bip(4'-COOH)]W[Phe(4-COOH)]G[Pro(4R-NH2)][Trp(4-Cl)(βS-Me)]D[dNMeA]G[Bip(4'-COOH)][Phe(3-CH2NH2)]S[dA][hTyr])), the IC50 turned out to be 0.041 nM.
For `C[C@@H]1C(=O)NCC(=O)N[C@@H](Cc2ccc(-c3ccc(C(=O)O)cc3)cc2)C(=O)N[C@@H](CCCN)C(=O)N[C@@H](CO)C(=O)N[C@H](C)C(=O)N[C@@H](CCc2ccc(O)cc2)C(=O)N[C@@H](Cc2ccc(-c3ccc(C(=O)O)cc3)cc2)C(=O)N[C@@H](Cc2c[nH]c3ccccc23)C(=O)N[C@@H](Cc2ccc(C(=O)O)cc2)C(=O)NCC(=O)N2C[C@H](N)C[C@H]2C(=O)N[C@@H]([C@@H](C)c2c[nH]c3cccc(Cl)c23)C(=O)N[C@@H](CC(=O)O)C(=O)N1C` [Example 49] (cyclo([Bip(4'-COOH)]W[Phe(4-COOH)]G[Pro(4R-NH2)][Trp(4-Cl)(βS-Me)]D[dNMeA]G[Bip(4'-COOH)][Orn]S[dA][hTyr])) the value was 0.402 nM.
For `C[C@@H]1C(=O)NCC(=O)N[C@@H](Cc2ccc(-c3ccc(C(=O)O)cc3)cc2)C(=O)N[C@@H](Cc2cccc(N)c2)C(=O)N[C@@H](CO)C(=O)N[C@H](C)C(=O)N[C@@H](CCc2ccc(O)cc2)C(=O)N[C@@H](Cc2ccc(-c3ccc(C(=O)O)cc3)cc2)C(=O)N[C@@H](Cc2c[nH]c3ccccc23)C(=O)N[C@@H](Cc2ccc(C(=O)O)cc2)C(=O)NCC(=O)N2C[C@H](N)C[C@H]2C(=O)N[C@@H]([C@@H](C)c2c[nH]c3cccc(Cl)c23)C(=O)N[C@@H](CC(=O)O)C(=O)N1C` [Example 50] (cyclo([Bip(4'-COOH)]W[Phe(4-COOH)]G[Pro(4R-NH2)][Trp(4-Cl)(βS-Me)]D[dNMeA]G[Bip(4'-COOH)][Phe(3-NH2)]S[dA][hTyr])), the IC50 was found to be 0.52 nM.
As for `C[C@@H]1C(=O)NCC(=O)N[C@@H](Cc2ccc(-c3ccc(C(=O)O)cc3)cc2)C(=O)N[C@@H](Cc2ccc(CN)cc2)C(=O)N[C@@H](CO)C(=O)N[C@H](C)C(=O)N[C@@H](CCc2ccc(O)cc2)C(=O)N[C@@H](Cc2ccc(-c3ccc(C(=O)O)cc3)cc2)C(=O)N[C@@H](Cc2c[nH]c3ccccc23)C(=O)N[C@@H](Cc2ccc(C(=O)O)cc2)C(=O)NCC(=O)N2C[C@H](N)C[C@H]2C(=O)N[C@@H]([C@@H](C)c2c[nH]c3cccc(Cl)c23)C(=O)N[C@@H](CC(=O)O)C(=O)N1C` [Example 51] (cyclo([Bip(4'-COOH)]W[Phe(4-COOH)]G[Pro(4R-NH2)][Trp(4-Cl)(βS-Me)]D[dNMeA]G[Bip(4'-COOH)][Phe(4-CH2NH2)]S[dA][hTyr])), the IC50 amounted to 0.32 nM.
For `C[C@@H]1C(=O)NCC(=O)N[C@@H](Cc2ccc(-c3ccc(C(=O)O)cc3)cc2)C(=O)N[C@@H](Cc2ccc(N)cc2)C(=O)N[C@@H](CO)C(=O)N[C@H](C)C(=O)N[C@@H](CCc2ccc(O)cc2)C(=O)N[C@@H](Cc2ccc(-c3ccc(C(=O)O)cc3)cc2)C(=O)N[C@@H](Cc2c[nH]c3ccccc23)C(=O)N[C@@H](Cc2ccc(C(=O)O)cc2)C(=O)NCC(=O)N2C[C@H](N)C[C@H]2C(=O)N[C@@H]([C@@H](C)c2c[nH]c3cccc(Cl)c23)C(=O)N[C@@H](CC(=O)O)C(=O)N1C` [Example 52] (cyclo([Bip(4'-COOH)]W[Phe(4-COOH)]G[Pro(4R-NH2)][Trp(4-Cl)(βS-Me)]D[dNMeA]G[Bip(4'-COOH)][Phe(4-NH2)]S[dA][hTyr])) the value was 0.454 nM.

The record behind these values is patent US20230406885A1, “CYCLIC PEPTIDES FOR TRAPPING INTERLEUKIN-1 BETA” (MERCK SHARP & DOHME LLC, priority 2022, published 2023).
